Laboratory results published in PMC5218480 (PLoS ONE, 2017).

Tested on: MV-4-11 cells
Test: Gene expression microarray analysis (Affymetrix PrimeView) and GSEA
Format: cell-based, human
Design: RFU PODN (11730768_x_at) / Fold change /veh PODN (11730768_x_at) / RFU LINC00158 (11744669_a_at) / Fold change /veh LINC00158 (11744669_a_at) / RFU DUSP10 (11751237_a_at) / Fold change /veh DUSP10 (11751237_a_at) / RFU ID3 (11757404_x_at) / Fold change /veh ID3 (11757404_x_at) / RFU PLEKHG5 (11737974_s_at) / Fold change /veh PLEKHG5 (11737974_s_at) / RFU LRRC4B (11730491_at) / Fold change /veh LRRC4B (11730491_at) / RFU GIMAP4 (11747438_a_at) / Fold change /veh GIMAP4 (11747438_a_at) / RFU KRT8 (11758183_x_at) / Fold change /veh KRT8 (11758183_x_at) / RFU CNN1 (11734310_a_at) / Fold change /veh CNN1 (11734310_a_at) / RFU VPS37D (11726825_at) / Fold change /veh VPS37D (11726825_at) / RFU C10orf10 (11716522_x_at) / Fold change /veh C10orf10 (11716522_x_at) / RFU KIR2DL2 /// KIR2DL4 /// KIR2DL5A /// KIR2DL5B /// KIR2DS1 /// KIR2DS2 /// KIR2DS3 /// KIR2DS4 /// KIR3DL3 /// KIR3DL3 /// KIR3DS1 (11738374_at) / Fold change /veh KIR2DL2 /// KIR2DL4 /// KIR2DL5A /// KIR2DL5B /// KIR2DS1 /// KIR2DS2 /// KIR2DS3 /// KIR2DS4 /// KIR3DL3 /// KIR3DL3 /// KIR3DS1 (11738374_at) / RFU C1QL1 (11718748_at) / Fold change /veh C1QL1 (11718748_at) / RFU TMPRSS4 (11747572_a_at) / Fold change /veh TMPRSS4 (11747572_a_at) / RFU HAMP (11756126_x_at) / Fold change /veh HAMP (11756126_x_at) / RFU RNFT2 (11725882_a_at) / Fold change /veh RNFT2 (11725882_a_at) / RFU NR4A2 (11747474_a_at) / Fold change /veh NR4A2 (11747474_a_at) / RFU ABCC12 (11746883_a_at) / Fold change /veh ABCC12 (11746883_a_at) / RFU TMEM136 (11760407_x_at) / Fold change /veh TMEM136 (11760407_x_at) / RFU CLDN22 /// WWC2 (11732394_at) / Fold change /veh CLDN22 /// WWC2 (11732394_at) / RFU HLA-DPB1 (11760878_x_at) / Fold change /veh HLA-DPB1 (11760878_x_at) / RFU SPINT1 (11716480_a_at) / Fold change /veh SPINT1 (11716480_a_at) / RFU GAP43 (11754022_s_at) / Fold change /veh GAP43 (11754022_s_at) / RFU A4GNT (11735810_at) / Fold change /veh A4GNT (11735810_at) / RFU PRB3 (11715151_x_at) / Fold change /veh PRB3 (11715151_x_at) / RFU TUBB4B (11761932_at) / Fold change /veh TUBB4B (11761932_at) / RFU CAPN14 (11732068_a_at) / Fold change /veh CAPN14 (11732068_a_at) / RFU TMCC2 (11721928_a_at) / Fold change /veh TMCC2 (11721928_a_at) / RFU IRGQ (11745062_a_at) / Fold change /veh IRGQ (11745062_a_at) / RFU FAM174B (11720279_a_at) / Fold change /veh FAM174B (11720279_a_at) / RFU TMPRSS4 (11748680_a_at) / Fold change /veh TMPRSS4 (11748680_a_at) / RFU FAM212B (11763350_a_at) / Fold change /veh FAM212B (11763350_a_at) / RFU PLEKHG5 (11743358_a_at) / Fold change /veh PLEKHG5 (11743358_a_at) / RFU ZSCAN30 (11745921_a_at) / Fold change /veh ZSCAN30 (11745921_a_at) / RFU CMKLR1 (11741424_a_at) / Fold change /veh CMKLR1 (11741424_a_at) / RFU LOC101060620 /// MAPK8IP1 (11723275_at) / Fold change /veh LOC101060620 /// MAPK8IP1 (11723275_at) / RFU SPTSSB (11747773_x_at) / Fold change /veh SPTSSB (11747773_x_at) / RFU PRSS12 (11739890_at) / Fold change /veh PRSS12 (11739890_at) / RFU BIN1 (11741810_x_at) / Fold change /veh BIN1 (11741810_x_at) / RFU WNT11 (11732464_a_at) / Fold change /veh WNT11 (11732464_a_at) / RFU C10orf10 (11716521_a_at) / Fold change /veh C10orf10 (11716521_a_at) / RFU C5orf56 (11738089_at) / Fold change /veh C5orf56 (11738089_at) / RFU CYB561 (11721691_x_at) / Fold change /veh CYB561 (11721691_x_at) / RFU ANKRD19P (11752326_a_at) / Fold change /veh ANKRD19P (11752326_a_at) / RFU OR2T12 /// OR2T33 /// OR2T8 (11738714_s_at) / Fold change /veh OR2T12 /// OR2T33 /// OR2T8 (11738714_s_at) / RFU VCAN (11748164_a_at) / Fold change /veh VCAN (11748164_a_at) / RFU JSRP1 (11732532_at) / Fold change /veh JSRP1 (11732532_at) / RFU KRTAP10-11 (11738290_x_at) / Fold change /veh KRTAP10-11 (11738290_x_at) / RFU MYO3A (11730013_a_at) / Fold change /veh MYO3A (11730013_a_at) / RFU EBF3 (11725865_a_at) / Fold change /veh EBF3 (11725865_a_at) / RFU CAMK2N1 (11719241_x_at) / Fold change /veh CAMK2N1 (11719241_x_at) / RFU C5orf56 (11738088_a_at) / Fold change /veh C5orf56 (11738088_a_at) / RFU OLFML3 (11715873_a_at) / Fold change /veh OLFML3 (11715873_a_at) / RFU LOC100653217 /// NTM (11731650_a_at) / Fold change /veh LOC100653217 /// NTM (11731650_a_at) / RFU MAPK11 (11762145_a_at) / Fold change /veh MAPK11 (11762145_a_at) / RFU FIZ1 (11724087_x_at) / Fold change /veh FIZ1 (11724087_x_at) / RFU OASL (11726364_x_at) / Fold change /veh OASL (11726364_x_at) / RFU SOX15 (11748057_x_at) / Fold change /veh SOX15 (11748057_x_at) / RFU CD79A (11719716_a_at) / Fold change /veh CD79A (11719716_a_at) / RFU HIST1H1D (11736915_at) / Fold change /veh HIST1H1D (11736915_at) / RFU CASKIN2 (11723855_a_at) / Fold change /veh CASKIN2 (11723855_a_at) / RFU LOC730098 (11760151_x_at) / Fold change /veh LOC730098 (11760151_x_at) / RFU OR4N2 (11742367_at) / Fold change /veh OR4N2 (11742367_at) / RFU PRRT2 (11749266_a_at) / Fold change /veh PRRT2 (11749266_a_at) / RFU SNX32 (11753110_a_at) / Fold change /veh SNX32 (11753110_a_at) / RFU CDHR5 (11726645_a_at) / Fold change /veh CDHR5 (11726645_a_at) / RFU RCAN1 (11760418_a_at) / Fold change /veh RCAN1 (11760418_a_at) / RFU FAM167A (11723789_a_at) / Fold change /veh FAM167A (11723789_a_at) / RFU FAM26E (11764081_at) / Fold change /veh FAM26E (11764081_at) / RFU ISYNA1 (11749810_s_at) / Fold change /veh ISYNA1 (11749810_s_at) / RFU ACY1 (11761880_at) / Fold change /veh ACY1 (11761880_at) / RFU 11764098_at / Fold change /veh 11764098_at / RFU SAMD14 (11745864_x_at) / Fold change /veh SAMD14 (11745864_x_at) / RFU NPB (11741838_a_at) / Fold change /veh NPB (11741838_a_at) / RFU TMPRSS6 (11731388_a_at) / Fold change /veh TMPRSS6 (11731388_a_at) / RFU KRTAP10-2 (11738614_at) / Fold change /veh KRTAP10-2 (11738614_at) / RFU ARHGAP8 /// PRR5-ARHGAP8 (11727945_x_at) / Fold change /veh ARHGAP8 /// PRR5-ARHGAP8 (11727945_x_at) / RFU KRTAP5-7 /// NADSYN1 (11734609_at) / Fold change /veh KRTAP5-7 /// NADSYN1 (11734609_at) / RFU RASL12 (11751679_a_at) / Fold change /veh RASL12 (11751679_a_at) / RFU CDKN2B (11736163_a_at) / Fold change /veh CDKN2B (11736163_a_at) / RFU PRF1 (11729649_at) / Fold change /veh PRF1 (11729649_at) / RFU, ZNF638 /// ZNF638-IT1 / Fold change vs veh, ZNF638 /// ZNF638-IT1 / RFU, PANK3 / Fold change vs veh, PANK3 / RFU, SH3YL1 / Fold change vs veh, SH3YL1 / RFU, ZEB2 / Fold change vs veh, ZEB2 / RFU, NRIP1 / Fold change vs veh, NRIP1 / RFU, PTTG1IP / Fold change vs veh, PTTG1IP / RFU, CAPN2 / Fold change vs veh, CAPN2 / RFU, MED14 / Fold change vs veh, MED14 / RFU, SNORA58 / Fold change vs veh, SNORA58 / RFU, C1orf63 / Fold change vs veh, C1orf63 / RFU, LRRFIP1 / Fold change vs veh, LRRFIP1 / RFU, NDUFAF7 / Fold change vs veh, NDUFAF7 / RFU, SLC12A2 / Fold change vs veh, SLC12A2 / RFU, IBTK / Fold change vs veh, IBTK / RFU, ESF1 / Fold change vs veh, ESF1 / Fold change vs veh, TMEM50B / RFU, TAOK1 / Fold change vs veh, TAOK1 / RFU, ACBD3 / Fold change vs veh, ACBD3 / RFU, TMA16 / Fold change vs veh, TMA16 / RFU, RWDD3 / Fold change vs veh, RWDD3 / RFU, BCAT1 / Fold change vs veh, BCAT1 / RFU, EDEM3 / Fold change vs veh, EDEM3 / RFU, TMEM33 / Fold change vs veh, TMEM33 / RFU, WDR75 / Fold change vs veh, WDR75 / RFU, AHCTF1 / Fold change vs veh, AHCTF1 / RFU, TFRC / Fold change vs veh, TFRC / RFU, ZDHHC17 / Fold change vs veh, ZDHHC17 / RFU, NOM1 / Fold change vs veh, NOM1 / RFU, ARL8B / Fold change vs veh, ARL8B / RFU, ZBTB11 / Fold change vs veh, ZBTB11 / RFU, TAMM41 / Fold change vs veh, TAMM41 / RFU, KIAA1704 /// LOC100996395 / Fold change vs veh, KIAA1704 /// LOC100996395 / RFU, ING1 / Fold change vs veh, ING1 / RFU, TRMT61B / Fold change vs veh, TRMT61B / RFU, FUBP3 / Fold change vs veh, FUBP3 / RFU, TP53 / Fold change vs veh, TP53 / RFU, TNKS2 / Fold change vs veh, TNKS2 / RFU, ZFP14 / Fold change vs veh, ZFP14 / RFU, ACTR2 / Fold change vs veh, ACTR2 / RFU, PPP3R1 / Fold change vs veh, PPP3R1 / RFU, PIK3R1 / Fold change vs veh, PIK3R1 / RFU, HNRNPA1 / Fold change vs veh, HNRNPA1 / RFU, RNF170 / Fold change vs veh, RNF170 / RFU, ZNF28 / Fold change vs veh, ZNF28 / RFU, RNGTT / Fold change vs veh, RNGTT / RFU, OGT / Fold change vs veh, OGT / RFU, BRD1 / Fold change vs veh, BRD1 / RFU, MARS / Fold change vs veh, MARS / RFU, ZNF655 / Fold change vs veh, ZNF655 / RFU, FAHD1 / Fold change vs veh, FAHD1 / RFU, BDP1 / Fold change vs veh, BDP1 / RFU, LRRCC1 / Fold change vs veh, LRRCC1 / RFU, ARID1A / Fold change vs veh, ARID1A / RFU, ZNF146 / Fold change vs veh, ZNF146 / RFU, ZNF330 / Fold change vs veh, ZNF330 / RFU, GPN3 / Fold change vs veh, GPN3 / RFU, C9orf123 / Fold change vs veh, C9orf123 / RFU, N4BP2L2 / Fold change vs veh, N4BP2L2 / RFU, ARFIP1 / Fold change vs veh, ARFIP1 / RFU, FAM179B / Fold change vs veh, FAM179B / RFU, BCL10 / Fold change vs veh, BCL10 / RFU, UHRF1BP1L / Fold change vs veh, UHRF1BP1L / RFU, BET1 / Fold change vs veh, BET1 / RFU, CNOT2 / Fold change vs veh, CNOT2 / RFU, ZNF268 / Fold change vs veh, ZNF268 / Fold change vs veh, ZNF507 / RFU, DGCR2 / Fold change vs veh, DGCR2 / RFU, WDSUB1 / Fold change vs veh, WDSUB1 / Fold change vs veh, HSP90B1 /// MIR3652 / RFU, ADSS / Fold change vs veh, ADSS / RFU, GK / Fold change vs veh, GK / RFU, ZNF148 / Fold change vs veh, ZNF148 / RFU, TAF9 / Fold change vs veh, TAF9 / RFU, SLC1A5 / Fold change vs veh, SLC1A5 / RFU, SLMO2 / Fold change vs veh, SLMO2 / RFU, ABCC4 / Fold change vs veh, ABCC4 / RFU, LOC101060439 /// RAP1B / Fold change vs veh, LOC101060439 /// RAP1B / RFU, RFX7 / Fold change vs veh, RFX7 / RFU, GTPBP10 / Fold change vs veh, GTPBP10 / RFU, CNEP1R1 / Fold change vs veh, CNEP1R1 / RFU, BIVM-ERCC5 /// ERCC5 / Fold change vs veh, BIVM-ERCC5 /// ERCC5 / RFU, ILF3 / Fold change vs veh, ILF3 / RFU 11762660_at / Fold change /veh 11762660_at / RFU VCAN (11757783_s_at) / Fold change /veh VCAN (11757783_s_at) / RFU DDX43 (11728927_at) / Fold change /veh DDX43 (11728927_at) / RFU KRT8 (11758188_x_at) / Fold change /veh KRT8 (11758188_x_at) / RFU NKD1 (11759106_at) / Fold change /veh NKD1 (11759106_at) / RFU SRD5A1 (11742802_a_at) / Fold change /veh SRD5A1 (11742802_a_at) / RFU TPSAB1 /// TPSB2 (11721975_s_at) / Fold change /veh TPSAB1 /// TPSB2 (11721975_s_at) / RFU GSTM3 (11746129_a_at) / Fold change /veh GSTM3 (11746129_a_at) / RFU IL23R (11737362_x_at) / Fold change /veh IL23R (11737362_x_at) / RFU TMEM51 (11727254_a_at) / Fold change /veh TMEM51 (11727254_a_at) / RFU PIWIL2 (11732686_x_at) / Fold change /veh PIWIL2 (11732686_x_at) / RFU ORM1 (11744905_x_at) / Fold change /veh ORM1 (11744905_x_at) / RFU CCDC152 (11743942_at) / Fold change /veh CCDC152 (11743942_at) / RFU ECM1 (11717891_a_at) / Fold change /veh ECM1 (11717891_a_at) / RFU IL23R (11748794_a_at) / Fold change /veh IL23R (11748794_a_at) / RFU TNFAIP8L3 (11732012_x_at) / Fold change /veh TNFAIP8L3 (11732012_x_at) / RFU MBOAT4 (11741988_at) / Fold change /veh MBOAT4 (11741988_at) / RFU 11764193_at / Fold change /veh 11764193_at / RFU TMEM53 (11763286_at) / Fold change /veh TMEM53 (11763286_at) / RFU MAGEB2 (11727129_at) / Fold change /veh MAGEB2 (11727129_at) / RFU TMEM200A (11744735_a_at) / Fold change /veh TMEM200A (11744735_a_at) / RFU CCDC152 (11751479_a_at) / Fold change /veh CCDC152 (11751479_a_at) / RFU FAM211A (11726209_a_at) / Fold change /veh FAM211A (11726209_a_at) / RFU RGS16 (11746705_a_at) / Fold change /veh RGS16 (11746705_a_at) / RFU VCAN (11755009_s_at) / Fold change /veh VCAN (11755009_s_at) / RFU RHOB (11743442_s_at) / Fold change /veh RHOB (11743442_s_at) / RFU RGS16 (11720943_a_at) / Fold change /veh RGS16 (11720943_a_at) / RFU RGS16 (11720944_at) / Fold change /veh RGS16 (11720944_at) / RFU, VPS4B / Fold change vs veh, VPS4B / RFU, CREB1 / Fold change vs veh, CREB1 / RFU, DNAJC13 / Fold change vs veh, DNAJC13 / RFU, GNAQ / Fold change vs veh, GNAQ / RFU, CDK5R1 / Fold change vs veh, CDK5R1 / RFU, ZRANB3 / Fold change vs veh, ZRANB3 / RFU, CUL4A / Fold change vs veh, CUL4A / RFU, CCNY / Fold change vs veh, CCNY / RFU, UFL1 / Fold change vs veh, UFL1 / RFU, COG3 / Fold change vs veh, COG3 / RFU, DIAPH2 / Fold change vs veh, DIAPH2 / RFU, SKA2 / Fold change vs veh, SKA2 / RFU, AFF3 / Fold change vs veh, AFF3 / RFU, LMF1 / Fold change vs veh, LMF1 / RFU, IPO11 / Fold change vs veh, IPO11 / RFU, DFFB / Fold change vs veh, DFFB / RFU, FOXP1 / Fold change vs veh, FOXP1 / RFU, CARD8 / Fold change vs veh, CARD8 / RFU, STRN3 / Fold change vs veh, STRN3 / RFU, ADK / Fold change vs veh, ADK / RFU, RASSF2 / Fold change vs veh, RASSF2 / RFU, WIPF1 / Fold change vs veh, WIPF1 / RFU, LARP1B / Fold change vs veh, LARP1B / RFU, RASA1 / Fold change vs veh, RASA1 / RFU, RB1 / Fold change vs veh, RB1 / RFU, PPFIA1 / Fold change vs veh, PPFIA1 / RFU, MAT2A / Fold change vs veh, MAT2A / RFU, CCT5 / Fold change vs veh, CCT5 / RFU, WDR92 / Fold change vs veh, WDR92 / RFU, CUX1 / Fold change vs veh, CUX1 / RFU, TTC7A / Fold change vs veh, TTC7A / RFU, TMEM135 / Fold change vs veh, TMEM135 / RFU, DEPTOR / Fold change vs veh, DEPTOR / RFU, CPM / Fold change vs veh, CPM / RFU, DNAJB6 / Fold change vs veh, DNAJB6 / RFU, CACNA2D3 / Fold change vs veh, CACNA2D3 / RFU, DTX4 / Fold change vs veh, DTX4 / RFU, TFCP2 / Fold change vs veh, TFCP2 / RFU, GMCL1 /// GMCL1P1 / Fold change vs veh, GMCL1 /// GMCL1P1 / RFU, AEBP2 / Fold change vs veh, AEBP2 / RFU, SNHG1 /// SNORD22 /// SNORD25 /// SNORD26 /// SNORD27 /// SNORD28 /// SNORD29 /// SNORD31 / Fold change vs veh, SNHG1 /// SNORD22 /// SNORD25 /// SNORD26 /// SNORD27 /// SNORD28 /// SNORD29 /// SNORD31 / Fold change (Aza/veh), C12orf56 (ProbeSet 11735607_a_at) / Fold change (ACY-1035/veh), C12orf56 (ProbeSet 11735607_a_at) / Fold change (Aza/veh), FGFR1OP (ProbeSet 11751329_s_at) / Fold change (ACY-1035/veh), FGFR1OP (ProbeSet 11751329_s_at) / Fold change (Aza/veh), VPS36 (ProbeSet 11739960_a_at) / Fold change (ACY-1035/veh), VPS36 (ProbeSet 11739960_a_at) / RFU SYPL1 (11715823_x_at) / Fold change /veh SYPL1 (11715823_x_at) / RFU IGFBP7 (11715501_s_at) / Fold change /veh IGFBP7 (11715501_s_at) / RFU REEP3 (11722064_at) / Fold change /veh REEP3 (11722064_at) / RFU IGLL1 (11728026_x_at) / Fold change /veh IGLL1 (11728026_x_at): dose or concentration left out as unconfirmed
Settings: ProbeSet 11724526_at; LIST B

**Q.** How did the “Fold change vs veh, FAHD1” value turn out when `Nc1ccc(-c2cccs2)cc1NC(=O)c1ccc2c(c1)cc(C1CC1)n2CCN1CCOCC1` [ACY-1035] was run?
**A.** Its value is 1.05.
